Literature values in patent EP4748406A1, “MEDICAL ADHESIVE AGENT AND MEDICAL ADHESIVE SHEET” (Nitto Denko Corporation, priority 2023, dated 2025).

In the case of C=C(C)C(=O)O [MAA, methacrylic acid], the “water solubility at 20°C” value is listed as 9.7 g/100 mL.
